Results taken from patent US20250231185A1, “Coronavirus T Cell Epitopes, Megapools and Uses Thereof” (La Jolla Institute for Immunology, priority 2021, published 2025).
Entries after “also recorded” stand apart in the source; their conditions may differ. Like-named read-outs stand apart in the source and are kept apart here.

Columns and labels:
CD4+ T cells = conditions: cited from earlier work; for Dominant: SARS-CoV-2-derived CD4 epitopes, Yes = recognized by 3 or more donors/different studies; for Restriction: T cell subset (CD4 or CD8) recognizing the SARS-CoV-2 epitope; for Allele(s): HLA class II allele(s) identified as MHC restriction elements of the CD4 epitope
CD8+ T cells [1] = assay: Meta-analysis of published SARS-CoV-2 CD8 T cell epitope data curated in the IEDB (25 studies); type: cell-based, human; conditions: for Dominant: dominant = recognized by 3 or more donors/different studies
CD8+ T cells [2] = conditions: cited from earlier work
[3] = SARS-CoV-2-derived CD8 epitopes
[4] = T cell type (CD4 or CD8) recognizing the SARS-CoV-2 epitope
[5] = SARS-CoV-2 Ag S, T cell type recognizing the epitope

## 37 (IKDLPKEITVATSRT) [compound 37]
CD4+ T cells
  Dominant: Yes (more dominant epitopes are defined by being recognized by 3 or more donors/different studies)
  Restriction: CD4

## 28 (RPLLESELVIGAVIL) [compound 28]
CD4+ T cells
  Allele(s): DQB1*02:02
  Restriction: CD4

## 100 (FKDQVILLNKHIDAY) [compound 100]
CD4+ T cells
  Allele(s): DRB1*03:01, DRB1*14:01,; also recorded: DRB1*14:06, DRB1*15:01,; also recorded: DRB1*16:02
  Dominant: Yes (more dominant epitopes are defined by being recognized by 3 or more donors/different studies)
  Restriction: CD4

## 47 (YSRYRIGNYKLNTDH) [compound 47]
CD4+ T cells
  Restriction: CD4

## 4 (FYVYSRVKNLNSSRV) [compound 4]
CD4+ T cells
  Dominant: Yes (more dominant epitopes are defined by being recognized by 3 or more donors/different studies)
  Restriction: CD4

## 86 (TDYKHWPQIAQFAPS) [compound 86]
CD4+ T cells
  Restriction: CD4

## 32 (LRGHLRIAGHHLGRC) [compound 32]
CD4+ T cells
  Allele(s): DRB1*11:01, DRB1*11:04
  Dominant: Yes (more dominant epitopes are defined by being recognized by 3 or more donors/different studies)
  Restriction: CD4

## 77 (AAEASKKPRQKRTAT) [compound 77]
CD4+ T cells
  Dominant: Yes (more dominant epitopes are defined by being recognized by 3 or more donors/different studies)
  Restriction: CD4

## 71 (EGALNTPKDHIGTRN) [compound 71]
CD4+ T cells
  Restriction: CD4

## 65 (PRWYFYYLGTGPEAG) [compound 65]
CD4+ T cells
  Allele(s): DQB1*02:01, DQB1*05:03
  Restriction: CD4

## 23 (TRSMWSFNPETNILL) [compound 23]
CD4+ T cells
  Allele(s): DQB1*05:03, DRB1*01:02
  Restriction: CD4

## 76 (GKGQQQQGQTVTKKS) [compound 76]
CD4+ T cells
  Restriction: CD4

## 66 (RWYFYYLGTGPEAGL) [compound 66]
CD4+ T cells
  Dominant: Yes (more dominant epitopes are defined by being recognized by 3 or more donors/different studies)
  Restriction: CD4

## 101 (ILLNKHIDAYKTFPP) [compound 101]
CD4+ T cells
  Allele(s): DRB1*14:06, DRB1*15:01
  Dominant: Yes (more dominant epitopes are defined by being recognized by 3 or more donors/different studies)
  Restriction: CD4

## 14 (LLWPVTLACFVLAAV) [compound 14]
CD4+ T cells
  Allele(s): DQB1*05:01, DQB1*05:03,; also recorded: DQB1*06:03
  Restriction: CD4

## 103 (QKKQQTVTLLPAADL) [compound 103]
CD4+ T cells
  Allele(s): DRB1*01:02
  Restriction: CD4

## 90 (ASAFFGMSRIGMEVT) [compound 90]
CD4+ T cells
  Allele(s): DQB1*05:03, DRB1*01:02,; also recorded: DRB1*14:01
  Dominant: Yes (more dominant epitopes are defined by being recognized by 3 or more donors/different studies)
  Restriction: CD4

## 16 (YRINWITGGIAIAMA) [compound 16]
CD4+ T cells
  Allele(s): DQB1*02:02, DQB1*03:01,; also recorded: DQB1*05:01, DQB1*05:02,; also recorded: DQB1*05:03, DQB1*06:02,; also recorded: DQB1*06:03, DRB1*07:01,; also recorded: DRB1*10:01, DRB1*12:01,; also recorded: DRB1*13:01, DRB1*14:01,; also recorded: DRB1*15:01, DRB1*16:01
  Dominant: Yes (more dominant epitopes are defined by being recognized by 3 or more donors/different studies)
  Restriction: CD4

## 257 (VKHVYQLRARSVSPK) [compound 257]
CD4+ T cells; CD4-restricted epitopes, HLA class II alleles identified as MHC restriction elements
  Allele(s) (HLA restriction): DRB1*01:03, DRB1*07:01

## 84 (FGDQELIRQGTDYKH) [compound 84]
CD4+ T cells
  Restriction: CD4

## 909 (ALRANSAVK) [compound 909]
CD8+ T cells [1]; [3]
  Dominant: Yes (more dominant epitopes are defined by being recognized by 3 or more donors/different studies)
CD8+ T cells [2]; [4]
  Restriction: CD8

## 951 (FVDGVPFVV) [compound 951]
CD8+ T cells [1]; [3]
  Dominant: Yes (more dominant epitopes are defined by being recognized by 3 or more donors/different studies)
CD8+ T cells [2]; [4]
  Restriction: CD8

## 1319 (QPYRVVVL) [compound 1319]
CD8+ T cells [1]; SARS-CoV-2 Ag S, CD8 epitopes
  Dominant: Yes (more dominant epitopes are defined by being recognized by 3 or more donors/different studies)
CD8+ T cells [2]; [5]
  Restriction: CD8

## 914 (VTDTPKGPK) [compound 914]
CD8+ T cells [1]; [3]
  Dominant: Yes (more dominant epitopes are defined by being recognized by 3 or more donors/different studies)
CD8+ T cells [2]; [4]
  Restriction: CD8

## 1386 (LTDEMIAQY) [compound 1386]
CD8+ T cells [1]; SARS-CoV-2 Ag S, CD8 epitopes
  Dominant: Yes (more dominant epitopes are defined by being recognized by 3 or more donors/different studies)
CD8+ T cells [2]; [5]
  Restriction: CD8

## 1072 (KVDGVDVEL) [compound 1072]
CD8+ T cells [1]; [3]
  Dominant: Yes (more dominant epitopes are defined by being recognized by 3 or more donors/different studies)
CD8+ T cells [2]; [4]
  Restriction: CD8

## 964 (RQLLFVVEV) [compound 964]
CD8+ T cells [1]; [3]
  Dominant: Yes (more dominant epitopes are defined by being recognized by 3 or more donors/different studies)
CD8+ T cells [2]; [4]
  Restriction: CD8

## 1361 (FTISVTTEIL) [compound 1361]
CD8+ T cells [1]; SARS-CoV-2 Ag S, CD8 epitopes
  Dominant: Yes (more dominant epitopes are defined by being recognized by 3 or more donors/different studies)
CD8+ T cells [2]; [5]
  Restriction: CD8

## 1389 (MIAQYTSAL) [compound 1389]
CD8+ T cells [1]; SARS-CoV-2 Ag S, CD8 epitopes
  Dominant: Yes (more dominant epitopes are defined by being recognized by 3 or more donors/different studies)
CD8+ T cells [2]; [5]
  Restriction: CD8

## 1041 (VYIGDPAQL) [compound 1041]
CD8+ T cells [1]; [3]
  Dominant: Yes (more dominant epitopes are defined by being recognized by 3 or more donors/different studies)
CD8+ T cells [2]; [4]
  Restriction: CD8

## 1324 (GPKKSTNLV) [compound 1324]
CD8+ T cells [1]; SARS-CoV-2 Ag S, CD8 epitopes
  Dominant: Yes (more dominant epitopes are defined by being recognized by 3 or more donors/different studies)
CD8+ T cells [2]; [5]
  Restriction: CD8

## 1398 (NQKLIANQF) [compound 1398]
CD8+ T cells [1]; SARS-CoV-2 Ag S, CD8 epitopes
  Dominant: Yes (more dominant epitopes are defined by being recognized by 3 or more donors/different studies)
CD8+ T cells [2]; [5]
  Restriction: CD8

## 1401 (AQALNTLVKQL) [compound 1401]
CD8+ T cells [1]; SARS-CoV-2 Ag S, CD8 epitopes
  Dominant: Yes (more dominant epitopes are defined by being recognized by 3 or more donors/different studies)
CD8+ T cells [2]; [5]
  Restriction: CD8

## 1052 (VLWAHGFEL) [compound 1052]
CD8+ T cells [1]; [3]
  Dominant: Yes (more dominant epitopes are defined by being recognized by 3 or more donors/different studies)
CD8+ T cells [2]; [4]
  Restriction: CD8

## 1321 (SFELLHAPATV) [compound 1321]
CD8+ T cells [1]; SARS-CoV-2 Ag S, CD8 epitopes
  Dominant: Yes (more dominant epitopes are defined by being recognized by 3 or more donors/different studies)
CD8+ T cells [2]; [5]
  Restriction: CD8

## YLQPRTFLL [SEQ ID NO: 1481]
CD8+ T cells [1]; overall, all curated studies
  found to be positive in independent studies: 11 independent studies
CD8+ T cells [2]; Ferretti et al., 67% of the subjects tested
  recognized in subjects: ≥ 3 subjects
CD8+ T cells [2]; Habel et al., 14 peptides screened, HLA-A*02:01
  IFN-f response: strongest
CD8+ T cells [2]; Nielsen study, HLA-A*02:01
  detected in HLA-A2+ individuals: 81%
CD8+ T cells [2]; Rha et al., 37 of 112 and 2 of 40 patients
  responses detected in patients: 33%
CD8+ T cells [2]; Rha et al.
  MHC class I multimer+ cells in unexposed subjects: not detected
CD8+ T cells [2]; Sahin et al.
  dominance as reported: most dominant epitope

## 905 (ALWEIQQV) [compound 905]
CD8+ T cells [1]; [3]
  Dominant: Yes (more dominant epitopes are defined by being recognized by 3 or more donors/different studies)
CD8+ T cells [2]; [4]
  Restriction: CD8

## 989 (MVMCGGSLYV) [compound 989]
CD8+ T cells [1]; [3]
  Dominant: Yes (more dominant epitopes are defined by being recognized by 3 or more donors/different studies)
CD8+ T cells [2]; [4]
  Restriction: CD8

## 1351 (VASQSIIAY) [compound 1351]
CD8+ T cells [1]; SARS-CoV-2 Ag S, CD8 epitopes
  Dominant: Yes (more dominant epitopes are defined by being recognized by 3 or more donors/different studies)
CD8+ T cells [2]; [5]
  Restriction: CD8

## 1442 (GTHWFVTQR) [compound 1442]
CD8+ T cells [1]; SARS-CoV-2 Ag S, CD8 epitopes
  Dominant: Yes (more dominant epitopes are defined by being recognized by 3 or more donors/different studies)
CD8+ T cells [2]; [5]
  Restriction: CD8

## 992 (DTDFVNEFY) [compound 992]
CD8+ T cells [1]; [3]
  Dominant: Yes (more dominant epitopes are defined by being recognized by 3 or more donors/different studies)
CD8+ T cells [2]; [4]
  Restriction: CD8

## 1405 (VLNDILSRL) [compound 1405]
CD8+ T cells [1]; SARS-CoV-2 Ag S, CD8 epitopes
  Dominant: Yes (more dominant epitopes are defined by being recognized by 3 or more donors/different studies)
CD8+ T cells [2]; [5]
  Restriction: CD8

## 1428 (APHGVVFLHV) [compound 1428]
CD8+ T cells [1]; SARS-CoV-2 Ag S, CD8 epitopes
  Dominant: Yes (more dominant epitopes are defined by being recognized by 3 or more donors/different studies)
CD8+ T cells [2]; [5]
  Restriction: CD8

## 1069 (NLWNTFTRL) [compound 1069]
CD8+ T cells [1]; [3]
  Dominant: Yes (more dominant epitopes are defined by being recognized by 3 or more donors/different studies)
CD8+ T cells [2]; [4]
  Restriction: CD8

## 901 (NTCDGTTFTY) [compound 901]
CD8+ T cells [1]; [3]
  Dominant: Yes (more dominant epitopes are defined by being recognized by 3 or more donors/different studies)
CD8+ T cells [2]; [4]
  Restriction: CD8

## 1087 (KMQRMLLEK) [compound 1087]
CD8+ T cells [1]; [3]
  Dominant: Yes (more dominant epitopes are defined by being recognized by 3 or more donors/different studies)
CD8+ T cells [2]; [4]
  Restriction: CD8

## 1366 (TECSNLLLQY) [compound 1366]
CD8+ T cells [1]; SARS-CoV-2 Ag S, CD8 epitopes
  Dominant: Yes (more dominant epitopes are defined by being recognized by 3 or more donors/different studies)
CD8+ T cells [2]; [5]
  Restriction: CD8

## 1061 (SYATHSDKF) [compound 1061]
CD8+ T cells [1]; [3]
  Dominant: Yes (more dominant epitopes are defined by being recognized by 3 or more donors/different studies)
CD8+ T cells [2]; [4]
  Restriction: CD8

## 1057 (ALLADKFPV) [compound 1057]
CD8+ T cells [1]; [3]
  Dominant: Yes (more dominant epitopes are defined by being recognized by 3 or more donors/different studies)
CD8+ T cells [2]; [4]
  Restriction: CD8

## 1421 (YHLMSFPQSA) [compound 1421]
CD8+ T cells [1]; SARS-CoV-2 Ag S, CD8 epitopes
  Dominant: Yes (more dominant epitopes are defined by being recognized by 3 or more donors/different studies)
CD8+ T cells [2]; [5]
  Restriction: CD8

## 939 (LLMPILTLT) [compound 939]
CD8+ T cells [1]; [3]
  Dominant: Yes (more dominant epitopes are defined by being recognized by 3 or more donors/different studies)
CD8+ T cells [2]; [4]
  Restriction: CD8
